What was measured:
[1] = system: A549 (lung); test: Mammalian cytotoxicity A549; assay type: cell-based; conditions: 1% v/v in 0.5% DMSO
[2] = system: HEK-293 (kidney); test: Mammalian cytotoxicity HEK-293; assay type: cell-based; conditions: 1% v/v in 0.5% DMSO
[3] = system: J774A.1 (macrophage); test: Mammalian cytotoxicity J774A.1; assay type: cell-based; conditions: 1% v/v in 0.5% DMSO
[4] = system: Mtb H37Rv; assay type: cell-based, Mycobacterium tuberculosis; conditions: no inhibitor

| Molecule | cell survival (positive control) [1] | cell survival (positive control) [2] | cell survival (positive control) [3] | H37RV MICKAN [4] |
| --- | --- | --- | --- | --- |
| Triton-X 100 | < 5% | < 5% | < 5% | – |
| NC[C@H]1O[C@H](O[C@H]2[C@H](O)[C@@H](O[C@H]3O[C@H](CO)[C@@H](O)[C@H](N)[C@H]3O)[C@H](N)C[C@@H]2N)[C@H](O)[C@@H](O)[C@@H]1O [KAN, kanamycin] | – | – | – | <1.25 µg/mL |

Source: paper PMC6528465 (ACS infectious diseases, 2018)
